Results published in US12569502B2, “Use of bile acids and derivatives thereof in preparation of GPR39 agonist” (PEKING UNIVERSITY, priority 2019, dated 2026).
Where a chain is given by its changes, count along the chain named. Read-outs that look alike come from different tables or passages of the source.

Assays:
[1] = target: T1, murine-derived wild-type (WT) GPR39 (Mus musculus, UniProt Q5U431); test: Calcium imaging on 293T cells transiently transfected with wild-type GPR39; type: cell-based; conditions: transiently transfected HEK293T cells
T1 construct: 3HA (N); P2A-mCherry (C); expressed in transfected cells; host or cells: HEK293T, transient (Lipofectamine 3000)
T1 sequence (Q5U431 1-456): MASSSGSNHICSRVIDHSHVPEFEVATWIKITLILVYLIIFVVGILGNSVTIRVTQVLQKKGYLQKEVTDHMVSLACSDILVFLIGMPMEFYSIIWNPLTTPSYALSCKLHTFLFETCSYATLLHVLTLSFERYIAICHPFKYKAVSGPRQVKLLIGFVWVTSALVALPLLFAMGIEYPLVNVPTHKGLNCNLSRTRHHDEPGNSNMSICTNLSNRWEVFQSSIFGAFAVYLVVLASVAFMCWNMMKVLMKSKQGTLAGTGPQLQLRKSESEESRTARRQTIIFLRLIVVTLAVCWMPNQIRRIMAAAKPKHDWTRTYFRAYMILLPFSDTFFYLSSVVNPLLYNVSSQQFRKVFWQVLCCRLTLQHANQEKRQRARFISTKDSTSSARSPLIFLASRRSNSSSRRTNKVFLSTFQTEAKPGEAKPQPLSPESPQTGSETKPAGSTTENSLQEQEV
Procedure: In the present application, the bile acid and/or derivative thereof is capable of activating the GPR39 independent of a zinc ion binding site. For example, in some embodiments, murine-derived wild-type (WT) GPR39 or zinc ion binding site mutant (H17A and H19A) GPR39 are transiently expressed in 293T cells by using lipofectamine3000 transfection kit. The activation effect of LCAS on the wild-type (WT) and mutants (H17A and H19A) is detected by calcium imaging.
HEK293T cells were seeded in a PDL-coated 96-well plate (coring Co.) at an appropriate density (about 3×10^4 cells/well) and cultured under conditions of 37° C. and 5% CO2. 24 h after seeding, when the cell density reached 60%-70%, Lipofectamine 3000 (Invitrogen) was used for transfection, in which the concentration of plasmid transfection was 50 ng per well. […] 2) Zinc ions […] on the activation of mutants H17A and H19A of GPR39 by LCAS.

[2] = target: T2, GPR39 receptors on m39-20 cell lines (Mus musculus, UniProt Q5U431, T447P); test: FLIPR calcium imaging on m39-20 cell lines stably expressing murine-derived GPR39; type: cell-based; conditions: for intracellular calcium signals in m39-20 cell lines: FIG. 1
T2 construct: P2A-mCherry (C); expressed in transfected cells
T2 sequence (Q5U431 1-456 T447P): T1 sequence (Q5U431 1-456) with T447P
Text: Intracellular calcium imaging is a routine technique to study cell functions, the basic principle of which is to detect the concentration of the calcium ion in tissues or cells using a calcium indicator, thereby reflecting certain reactions in the tissues or cells. In the present application, the intracellular calcium released from a cell line that stably or transiently expresses GPR39 is detected using Fluo8-AM, a calcium fluorescent indicator, so as to determine the activation of the GPR39 receptor by the bile acid and derivative thereof.
HEK293T cells (purchased from ATCC) were seeded in a 6-well plate (coming Co.) at an appropriate density (about 0.5-2×10^5/well). When the cell density reached above 30%, the plasmid PLVXK-mGPR39-P2A-mCherry was transfected with Lipofectamine 3000 (Invitrogen) at a concentration of 2 μg per well. The cells were passaged 24 hours after transfection, the puromycin (gibco) was added into the medium at a concentration of 2 μg/mL for antibiotic screening of cells. After 2-4 days of continuous screening, the cells screened for puromycin resistance were trypsinized and screened by flow cytometry for monoclones with red fluorescence. And these monoclones were seeded in a 96-well plate and cultured in a medium without puromycin for around 10 days. Cell colonies with red fluorescence were sorted under a fluorescence microscope, trypsinized and then passaged and expanded in a 6-well plate. Cell lines m39-20 stably expressing murine-derived GPR39 were obtained through the above methods.
Calcium dye Fluo8-AM (ATT bioquest Co.) was dissolved in DMSO solvent to formulate a stock solution of 1 μg/μL. […] After then, the calcium dye working solution was replaced with the 4K solution (50 μL per well), and acclimated for 5 min at room temperature for the subsequent calcium imaging experiment.
Bile acids and derivatives thereof as listed in Table 1 below were dissolved in dimethyl sulfoxide (DMSO, Sigma Co.) solvent to formulate a stock solution of 50 mM, which was stored at −20° C. During calcium imaging with FLIPR, the drug was diluted with the above 4K solution into a working concentration of 400 μM, and packaged into another 96-well plate. […] The instrument parameters were set so that 50 μL of the drug solution may be added into the culture wells within 2 s. The fluorescence recording result within the first 30 seconds was used as the baseline value. The FLIPR robot arm was programmed to automatically add bile acids and derivatives thereof into the cell sample culture wells at the 31st second. 1% of DMSO solvent was used as the blank control.
After that, the calcium dye working solution was replaced with a 4K solution containing 4 μM zinc ions (50 μL per well), followed by acclimation for 5 min at room temperature.

Compound	EC50 ([1]; + 4 μM zinc ions) [µM]	EC50 ([1]; agonist alone) [µM]	EC50 ([2]; Bile acid + 4 μM zinc ions EC50, m39-20 cells, 4 μM zinc ions) [µM]	intracellular calcium signals in m39-20 cell lines [2]	intracellular calcium signaling response in m39-20 cells ([2]; absence of zinc ions)	Only bile acid Efficacy ([2]; activation efficacy, m39-20 cells, no zinc ions) [%]	change of activation efficacy after the addition of zinc ions ([2]; m39-20 cells, Table 1, FIG. 2)	activation capacity on GPR39 receptors among the bile acids ([2]; m39-20 cells, dose curves)	EC50 ([2]; m39-20 cells, no zinc ions, read-out: Only bile acid EC50) [µM]	EC50 ([2]; m39-20 cells, zinc ions 0 μM, read-out: EC50) [µM]	EC50 ([2]; m39-20 cells, zinc ions 0.05 μM, read-out: EC50) [µM]	EC50 ([2]; m39-20 cells, zinc ions 0.1 μM, read-out: EC50) [µM]	EC50 ([2]; m39-20 cells, zinc ions 0.2 μM, read-out: EC50) [µM]	EC50 ([2]; m39-20 cells, zinc ions 0.4 μM, read-out: EC50) [µM]	EC50 ([2]; m39-20 cells, zinc ions 1 μM, read-out: EC50) [µM]	EC50 ([2]; m39-20 cells, zinc ions 2 μM, read-out: EC50) [µM]	EC50 ([2]; m39-20 cells, zinc ions 4 μM, read-out: EC50) [µM]
C[C@H](CCC(=O)O)[C@H]1CC[C@H]2[C@@H]3CC[C@@H]4C[C@H](OS(=O)(=O)O)CC[C@]4(C)[C@H]3CC[C@]12C [LCAS]	5.2 ± 0.7	33.1 ± 5.1	0.88 ± 0.16	varying extents of intracellular calcium signals	strong intracellular calcium signaling response	111.1 ± 3.9	increases slightly	strongest activation capacity	41 ± 4.5	31 ± 2.1	30.7 ± 2.4	30.6 ± 2	25.4 ± 1.1	20.1 ± 0.67	6.4 ± 0.67	1.9 ± 0.03	0.7 ± 0.03
[Zn+2] [Zinc ions, reference compound]	–	12 ± 5.3	–	inducing intracellular calcium signals	–	–	–	–	–	–	–	–	–	–	–	–	–
